Consider seven molecules from US6376753B1, “PURIFIED CYTOCHROME P450 POLYPEPTIDE CYP76B1 FROM HELIANTHUS TUBEROSUS AND ITS APPLICATIONS AS BIOCATALYST IN PARTICULAR FOR THE DEGRADATION OF ENVIRONMENTAL POLLUTANTS AND FOR ALTERING THE RESISTANCE OF PLANTS SENSITIVE TO PHENYLUREA FAMILY OF HERBICIDES” (priority 1997, dated 2002).

For series [1], the system named is microsomes from aminopyrine-induced H. tuberosus tuber tissues. Briefly: ECOD activity in microsomes from aminopyrine-induced tuber tissues. It counts as biochemical, Helianthus tuberosus. The source says:
Gels were stained with Coomassie Blue R-250. […] The data are means ± S.D. of triplicates.
Table 1: NADPH- and cumene hydroperoxide-dependent ECOD activity in microsomes from aminopyrine-induced H. tuberosus tuber tissues and in microsomes from control and CYP76B1-transformed yeast. Immunoinhibition by anti-ECOD antibodies.

Series [2] has as its target T1, CYP76B1 (Helianthus tuberosus, UniProt O23976).
T1 sequence (O23976 1-490): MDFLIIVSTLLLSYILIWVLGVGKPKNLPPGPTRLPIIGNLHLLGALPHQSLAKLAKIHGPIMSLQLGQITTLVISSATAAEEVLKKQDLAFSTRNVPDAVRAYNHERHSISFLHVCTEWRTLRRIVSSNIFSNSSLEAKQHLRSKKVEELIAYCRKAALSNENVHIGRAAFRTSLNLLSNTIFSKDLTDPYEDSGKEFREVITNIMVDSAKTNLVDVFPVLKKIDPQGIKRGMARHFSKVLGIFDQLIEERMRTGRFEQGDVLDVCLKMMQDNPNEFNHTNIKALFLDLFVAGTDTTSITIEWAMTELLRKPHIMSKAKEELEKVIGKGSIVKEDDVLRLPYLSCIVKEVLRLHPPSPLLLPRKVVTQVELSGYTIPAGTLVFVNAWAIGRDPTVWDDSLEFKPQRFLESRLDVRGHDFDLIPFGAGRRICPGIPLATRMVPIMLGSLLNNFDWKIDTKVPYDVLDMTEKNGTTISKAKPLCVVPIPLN
Put plainly: CYP76B1-dependent metabolism (O-/N-dealkylation) in microsomes of transformed yeast. The conditions noted are these: for ECOD activity: Transformed yeast W(R); for Activity: + NADPH; for turnover of the dealkylation: for phenylureas first dealkylation. The protocol:
BamHI and EcoRI sites were introduced by PCR just upstream of the ATG and downstream of the stop codon of the CYP76B1 coding sequence, using the primers 5′-[…] (sense) 5′-[…] (reverse) (SEQ ID NO 3 and SEQ ID NO 4 respectively). The PCR mixture was preheated for 2 min at 92° C. before addition of 1 unit of Pfu DNA polymerase (Stratagene). After 3 min additional heating at 92° C., 30 cycles of amplification were carried out as follows 1 min denaturation at 92° C., 1 min annealing at 52° C., 2 min extension at 72° C. The reaction was completed by 10 min extension at 72° C. After BamHI/EcoRI digestion, the 1470 bp coding sequence was inserted into the vector pYeDP60 (32). Transformation of Saccharomyces cerevisiae W(R), WAT11 and WAT21, and yeast growth were conducted according to Pompon et al. (32). Yeast microsomes were prepared as described in Pierrel et al. (33) with addition of 1% SAB, 2 mM β-mercaptoethanol, 10 mM sodium disulfite and 1 mM PMSF to the extraction buffer. When indicated, 0.5 mM δ-aminolevulinic acid methyl ester (Sigma) was added to the induction medium, or cells were stored at 4° C. for 24 h before preparation of the microsomes.
(§1) Spectrophotometric measurements of P450 content and substrate binding were performed as in (Gabriac et al., 1991) and SDS-PAGE was performed as in Gabriac et al. (34). Gels were stained with Coomassie Blue R-250. Alkoxycoumarins and alkoxyresorufins O-dealkylation was measured by fluorometry (Werck-Reichhart et al., 1990). The data are means ± S.D. of triplicates.
The conversion of other molecules was assayed by TLC or HPLC analysis of polar metabolites formed from radiolabeled compounds (Cabello-Hurtado et al., 1998a, b). NADPH-cytochrome c reductase was assayed according to (Benveniste et al., 1986). Kinetic data were fitted using the nonlinear regression program […] (Duggleby, 1984).
10 μL of non-immune serum or of serum raised against purified ECOD fraction were preincubated 2 min at room temperature with 10 μL of microsomes before addition of the reaction mix. n.d.: not detectable.
Conversion was estimated from the sum of the two polar metabolites detected after TLC analysis. Data are means + S.D. of two to four determinations. n.d.: not detected.
CYP76B1 concentrations in the MCOD, ECOD, MROD and EROD fluorometric assays were 1.5 nM or 2.1 nM, depending on the coexpressed ATR1 or yeast reductases. In the CTUDM assays, CYP76B1 concentrations were 1.7 nM (ATR1) and 8 nM (yeast), respectively. It was 12 nM for the determination of the catalytic parameters of monodemethyl-CTUDM, and 1.7 nM (ATR1) or 20 nM (yeast) in the IPUDM assays. Products were quantified by direct TLC analysis of 100 μL of the acidified incubation medium after 6 min incubation at 30° C. for the CTUDM and IPUDM assays, and after 9 min incubation for the monodemethyl-CTUDM.

Series [3] relates to control yeast microsomes. Put plainly: Metabolism in control yeast microsomes (void plasmid pYeDP60). The conditions noted are these: NADPH. Type of series: biochemical, Saccharomyces cerevisiae.
For series [4], the target named is T1, CYP76B1. Briefly: biochemical. The method, then: as §1
The binding of substrates into the catalytic site of a P450 usually induces a shift of its maximum of absorbance, redox potential and iron spin state (Raag and Poulos, 1989) resulting from the displacement of the water sixth ligand of the heme iron. It is easily detected by differential spectrophotometry as a so-called type I spectrum with a peak at 390 nm and a trough at 420 nm (Jefcoate, 1978). The variation of the differential absorbance ΔA390-420 versus substrate concentration allows the calculation of an apparent dissociation constant (Ks). A high ΔAmax induced by the ligand is usually an indication of correct positioning for catalysis.
CYP76B1 was 60 nM in the assays. Difference spectra were recorded after the addition of increasing concentrations of ligands to the sample cuvette. An equal volume of the herbicide solvent (DMSO) was added to the reference. Ks and ΔAmax at saturating ligand concentration were calculated from the double-reciprocal plots of ΔA(390-420 nm) versus substrate concentrations.

Series [5] has as its target T2, CYP73A1 (Helianthus tuberosus, UniProt Q04468).
T2 construct: host or cells: yeast-expressed, according to b197
T2 sequence (Q04468 1-505): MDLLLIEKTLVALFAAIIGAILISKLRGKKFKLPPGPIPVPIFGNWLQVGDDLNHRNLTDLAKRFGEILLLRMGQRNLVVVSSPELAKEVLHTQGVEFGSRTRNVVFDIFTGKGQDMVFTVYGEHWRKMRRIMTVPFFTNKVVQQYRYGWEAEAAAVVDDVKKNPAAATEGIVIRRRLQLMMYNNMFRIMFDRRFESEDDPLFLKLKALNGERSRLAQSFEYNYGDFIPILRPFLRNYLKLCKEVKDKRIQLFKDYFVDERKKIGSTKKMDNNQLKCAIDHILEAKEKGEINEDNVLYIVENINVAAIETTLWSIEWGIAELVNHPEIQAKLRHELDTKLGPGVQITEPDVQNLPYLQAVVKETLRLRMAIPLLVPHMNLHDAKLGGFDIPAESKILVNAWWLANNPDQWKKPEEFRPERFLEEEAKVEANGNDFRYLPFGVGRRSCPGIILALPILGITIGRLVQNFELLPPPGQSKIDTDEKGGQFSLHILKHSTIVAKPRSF
The conditions noted are these: chlortoluron hydroxylation; cited from earlier work.

Series [6] relates to cotton seedling hypocotyl microsomes. Conditions: read-out: Km for demethylation; cited from earlier work.
In series [7] the test system is 7-methoxyresorufin O-dealkylase activity. Put plainly: Induction of 7-methoxyresorufin O-demethylase activity in tuber slices. It counts as cell-based, Helianthus tuberosus. The conditions noted are these: 48 hours of treatment. The protocol: Slices of dormant tuber of Helianthus tuberosus were placed under survival conditions in oxygenated distilled water and stirred with a current of compressed air in the presence of various metals or organic compounds (effectors).
A control was performed with DMSO alone.

Series [8] has as its system CYP76B1 transcripts.
Series [9] concerns CYP76B1 transcripts. The conditions noted are these: tuber tissues aged 48 h with the chemical.
Substrate in series [10]: Cc1ccc(NC(=O)N(C)C)cc1Cl
Briefly: purified protein, by the assay type.

Substrate in series [11]: CC(C)c1ccc(NC(=O)N(C)C)cc1
Briefly: purified protein, by the assay type.

Substrate in series [12]: CCOc1ccc2ccc(=O)oc2c1
Put plainly: purified protein, by the assay type.

Substrate in series [13]: COc1ccc2ccc(=O)oc2c1
Briefly: purified protein, by the assay type.

Substrate in series [14]: CCOc1ccc2nc3ccc(=O)cc-3oc2c1
Briefly: purified protein, by the assay type. Conditions: other: coexpressed yeast reductase (W(R)).

Where [15] appears, read: 50 μM NADPH, 400 μM 7-ethoxycoumarin.
[16] abbreviates: other: coexpressed reductase ATR1 (WAT11).
[17] abbreviates: other: coexpressed yeast reductase (W(R)).

`CCOc1ccc2ccc(=O)oc2c1` [7-ethoxycoumarin]: the ECOD activity in [1] (setting [15]) is on record as 5.2 ± 0.1 pkat · mg^−1 protein; in [1] (125 μM cumene hydroperoxide) it was 2.5 ± 0.09 pkat · mg^−1 protein; in [1] (NADPH + anti-ECOD antibodies), 2.6 ± 0.1 pkat · mg^−1 protein; in series [2] (setting [15]), 8.4 ± 0.05 pkat · mg^−1 protein; in [2] (125 μM cumene hydroperoxide) it was “no activity”; in series [2] (NADPH + anti-ECOD antibodies), 7.5 ± 0.2 pkat · mg^−1 protein. Moreover, in [3], the ECOD activity entry is “No activity”. In [2] (ECOD, W(R) yeast microsomes, NADPH), the Vmax was 600 pkat.pmole^−1 P450. Moreover, the Activity in series [2] (W(R) strain) was found to be 8.4 pkat mg-1 protein; in series [2] (WAT11 strain), 15.9 pkat mg-1 protein. Moreover, the “turnover of the dealkylation” value in series [2] (W(R) strain) amounted to 10 min⁻¹; in series [2] (WAT11 strain), 30 min⁻¹.

As for `Cc1ccc(NC(=O)N(C)C)cc1Cl` [Chlortoluron, N-(3-chloro-p-tolyl)-N′,N′-dimethylurea], the Kd (usually the equilibrium constant for the complex coming apart) in series [4] worked out at 24 µM. The “ΔAmax × 10^−3” value in series [4] (CYP76B1 60 nM, at saturating ligand concentration) is given as 5.1 × 10^−3. Moreover, the Activity is recorded as 1223 pkat mg-1 protein in series [2] (W(R) strain) and 4258 pkat mg-1 protein in series [2] (WAT11 strain). The “turnover of the dealkylation” value in series [2] (W(R) strain) is “about 376 min^−1”; in [2] (WAT11 strain), 803 min⁻¹. The Kcat was 803 min⁻¹ in [2] (coexpressed reductase ATR1 (WAT11)) and 376 min⁻¹ in series [2] (coexpressed yeast reductase (W(R))). The “kCat of the second demethylation” value in [2] (second demethylation, slow step for complete detoxification) was determined as 46 min⁻¹. Also, in [5], the “reaction turnover (hydroxylation)” value is 0.014 min⁻¹.

With `CN(C)C(=O)Nc1ccc(Cl)c(Cl)c1` [Diuron], binding in [4] was put at a Kd of 20 µM. The Km (usually the substrate concentration at which the rate is half of its maximum) in series [6] was 15 µM.

Turning to `Cc1c(N(C)C)c(=O)n(-c2ccccc2)n1C` [aminopyrine], the “induction of 7-methoxyresorufin O-dealkylase activity” value (“induction” for short) in series [7] is reported as “very strongly induced”. In addition, in series [8], the “fold more transcripts coding for CYP76B1 than for CYP73A1 or CYP81B1” value is reported as 2 to 6 fold.

On to `[Cl][Mn][Cl]` [manganese, MnCl2], for which the “induction” value in [7] is given as “very strongly induced”. Besides, in series [8], the “fold more transcripts coding for CYP76B1 than for CYP73A1 or CYP81B1” value is recorded as 2 to 6 fold.

Regarding `CCC1(c2ccccc2)C(=O)NC(=O)NC1=O.[Na]` [phenobarbital, 5-ethyl-5-phenyl-barbituric acid, sodium salt], in series [9], the “effect on CYP76B1 mRNA accumulation / expression” value is listed as “strongly induced” and the “level of CYP76B1 transcripts relative to the control” value worked out at 6 ×. Moreover, the “induction” value in series [7] is “very strongly induced”.

B1: CYP76B1 (Helianthus tuberosus) (protein)
chain: MDFLIIVSTLLLSYILIWVLGVGKPKNLPPGPTRLPIIGNLHLLGALPHQSLAKLAKIHGPIMSLQLGQITTLVISSATAAEEVLKKQDLAFSTRNVPDAVRAYNHERHSISFLHVCTEWRTLRRIVSSNIFSNSSLEAKQHLRSKKVEELIAYCRKAALSNENVHIGRAAFRTSLNLLSNTIFSKDLTDPYEDSGKEFREVITNIMVDSAKTNLVDVFPVLKKIDPQGIKRGMARHFSKVLGIFDQLIEERMRTGRFEQGDVLDVCLKMMQDNPNEFNHTNIKALFLDLFVAGTDTTSITIEWAMTELLRKPHIMSKAKEELEKVIGKGSIVKEDDVLRLPYLSCIVKEVLRLHPPSPLLLPRKVVTQVELSGYTIPAGTLVFVNAWAIGRDPTVWDDSLEFKPQRFLESRLDVRGHDFDLIPFGAGRRICPGIPLATRMVPIMLGSLLNNFDWKIDTKVPYDVLDMTEKNGTTISKAKPLCVVPIPLN
Consider B1, for which the Km in series [10] (setting [16]) amounted to 179 µM; in [10] (setting [17]), 202 µM; in [11] (setting [16]), 289 µM; in series [11] (setting [17]), 361 µM; in series [12] (setting [16]), 60 µM; in series [12] (setting [17]), 74 µM. Moreover, the figures for the Km in series [13] (setting [16]), in [13] (setting [17]) and in [14] were 808 µM, 899 µM and 0.49 µM, respectively. In addition, the kcat – broadly, the maximal rate divided by the concentration of active sites – in [12] (setting [16]) came to 0.5 s⁻¹; in series [12] (setting [17]), 0.167 s⁻¹; in series [13] (setting [16]) it was 0.517 s⁻¹; in series [13] (setting [17]) it was 0.217 s⁻¹; in series [14], 0.1 s⁻¹. The kcat/Km (usually the turnover number divided by the Michaelis constant) in series [12] (setting [16]) was found to be 8330 M⁻¹ s⁻¹; in [12] (setting [17]) it was 2170 M⁻¹ s⁻¹; in series [13] (setting [16]), 667 M⁻¹ s⁻¹; in [13] (setting [17]), 167 M⁻¹ s⁻¹; in series [14], 200000 M⁻¹ s⁻¹.
